Measured values reported in paper PMC5215716, “A Target-Based Whole Cell Screen Approach To Identify Potential Inhibitors of Mycobacterium tuberculosis Signal Peptidase” (ACS Infectious Diseases, 2016).
Converted amounts (≈) assume the structure as drawn. Like-named read-outs stand apart in the source and are kept apart here. Marks after values point to notes of the source that are not given here.

Legend:
[1] = system: M. tuberculosis strain SPAM13C (LepB-UE); assay: microbe, parasite or virus in culture; assay type: cell-based, Mycobacterium tuberculosis; conditions: for MIC: Mycobacterium tuberculosis; for Change in potency against LepB-UE compared to compound 1: decrease in potency relative to compound 1
[2] = system: wild-type (wt) M. tuberculosis strain; assay: microbe, parasite or virus in culture; assay type: cell-based, Mycobacterium tuberculosis; conditions: for MIC: Mycobacterium tuberculosis
[3] = in vitro; assay type: cell-based, African green monkey; conditions: African green monkey
Protocol: Cytotoxicity against African green monkey adult kidney cell (Vero cells) was determined as previously described using CellTiter-Glo reagent.[44] The concentration causing 50% growth inhibition (IC50) was calculated by fitting the inhibition curves using the Levenberg–Marquardt algorithm.

[4] = target: T1, LepB (Mycobacterium tuberculosis, UniProt P9WKA1); assay: LepB membrane assay (fluorogenic signal peptide cleavage by cell membrane fraction); assay type: biochemical; conditions: M. tuberculosis H37Rv cell membrane fraction, 2 μM peptide substrate, 4 h at 37 °C
T1 construct: we used purified membrane fractions to develop an in vitro assay for signal peptide cleavage; host or cells: γ-irradiated whole M. tuberculosis H37Rv; Triton X-114 membrane fraction
T1 sequence (P9WKA1 1-294): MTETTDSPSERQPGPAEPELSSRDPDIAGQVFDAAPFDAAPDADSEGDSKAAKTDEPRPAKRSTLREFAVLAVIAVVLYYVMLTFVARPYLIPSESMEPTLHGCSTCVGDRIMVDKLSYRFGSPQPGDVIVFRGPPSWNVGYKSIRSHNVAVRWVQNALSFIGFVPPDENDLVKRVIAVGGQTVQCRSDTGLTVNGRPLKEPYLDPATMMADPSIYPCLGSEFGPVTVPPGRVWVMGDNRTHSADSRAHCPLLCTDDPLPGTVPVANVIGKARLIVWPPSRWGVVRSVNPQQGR

[5] = 120 h, M. tuberculosis strain SPAM13C, OD590 after 5 days at 37 °C, average ± SD of at least two experiments, b = single value, read-out: LepB-UE MIC
[6] = 120 h, […], OD590 after 5 days at 37 °C, average ± SD of at least two experiments, b = single value, read-out: WT MIC
[7] = M. tuberculosis strain SPAM13C, OD590 after 5 days at 37 °C, average ± SD of at least two experiments, b = single value

| Compound | MIC [1, 5] [µM] | MIC [2, 6] [µM] | CC50 [3] [µM] | IC50 [4] [µM] | other results |
| --- | --- | --- | --- | --- | --- |
| C/C(=N\Nc1nc(C)cc(C)n1)c1ccccn1 [Compound 1] | 3 ± 1.1 (≈ 0.724 µg/mL) | 18 ± 1 (≈ 4.34 µg/mL) | 2.3 | 39 |  |
| Oc1ccccc1/C=N/Nc1nc(-c2ccccc2)cs1 [Compound 2] | 9.3 ± 3.2 (≈ 2.75 µg/mL) | 43 ± 26 (≈ 12.7 µg/mL) | 13 | > 200 |  |
| O=[N+]([O-])c1ccc(O)c(/C=N/Nc2ccccn2)c1 [Compound 3] | 4.7 (≈ 1.21 µg/mL) | 11 (≈ 2.84 µg/mL) | 2.9 | 12 |  |
| Cc1cnn(-c2cc(N/N=C/c3ccccc3O)ncn2)c1 [Compound 4] | 4.5 ± 2.5 (≈ 1.32 µg/mL) | 10 ± 7 (≈ 2.94 µg/mL) | 9.2 | > 200 |  |
| Cc1ccc2cc(C)c(N/N=C/c3cc(Br)ccc3O)nc2c1 [Compound 5] | 7.4 ± 3.4 (≈ 2.74 µg/mL) | > 200 | 5 | > 200 |  |
| Cc1nc2ccccc2nc1N/N=C/c1ccc(O)c(C)c1O [Compound 6] | 3.8 ± 1.3 (≈ 1.17 µg/mL) | 26 ± 12 (≈ 8.02 µg/mL) | 8.7 | > 200 |  |
| Cc1nc2ccccc2nc1N/N=C/c1c(O)ccc2ccccc12 [Compound 7] | 3.9 ± 1.7 (≈ 1.28 µg/mL) | 14 ± 3 (≈ 4.6 µg/mL) | 5.2 | 130 |  |
| Oc1ccc(/C=N/Nc2ccc3ccccc3n2)c(O)c1 [Compound 8] | 3.6 ± 1.1 (≈ 1.01 µg/mL) | > 200 | 6.7 | > 200 |  |
| Cc1ccc(Nc2nc(N/N=C/c3ccccc3O)nc(N3CCOCC3)n2)c(Br)c1 [Compound 9] | 11 ± 1 (≈ 5.33 µg/mL) | 57 ± 24 (≈ 27.6 µg/mL) | 13 | > 200 |  |
| COc1ccc(Nc2nc(NCc3ccco3)nc(N/N=C/c3ccccc3O)n2)cc1 [Compound 10] | 5.4 ± 2.6 (≈ 2.33 µg/mL) | > 200 | 4.3 | > 200 |  |
| C/C(=N\NC(=O)c1ccc(N2CCCC2=O)cc1)c1ccccn1 [Compound 11] | 3.5 to 15 (≈ 1.13 to 4.84 µg/mL) | < 10 | 6.1 | 26 | LepB-UE MIC [1, 7]: 3.5 ± 1.8 µM; WT MIC ([2]; […], OD590 after 5 days at 37 °C, average ± SD of at least two experiments, b = single value): 14 ± 7 µM |
| O=C(N/N=C/c1cccc2cccnc12)c1ccn(Cc2ccc(Cl)cc2)n1 [Compound 12] | 3.5 to 15 (≈ 1.36 to 5.85 µg/mL) | 22 ± 2 (≈ 8.58 µg/mL) | 34 | > 200 | LepB-UE MIC [1, 7]: 6.3 ± 3.5 µM |
| O=C(N/N=C/c1cccc2cccnc12)c1ccn(Cc2ccc(Cl)cc2Cl)n1 [Compound 13] | 3.5 to 15 (≈ 1.49 to 6.36 µg/mL) | 18 ± 5 (≈ 7.64 µg/mL) | 21 | > 200 | LepB-UE MIC [1, 7]: 4.7 ± 0.6 µM |
| CCOC(=O)CN1C(=O)/C(=N\NC(=O)c2ccccn2)c2ccccc21 [Compound 14] | 3.5 to 15 (≈ 1.23 to 5.29 µg/mL) | > 200 | 32 | > 200 | LepB-UE MIC [1, 7]: 4.9 ± 1.9 µM |
| N=C(N/N=C/c1ccccc1O)c1ccccn1 [Compound 17] | 6.7 ± 1.6 (≈ 1.61 µg/mL) |  | > 100 |  | Increase in potency against wt compared to 16 ([2]; relative to compound 16): ~4 fold |
| C/C(=N\NC(=S)Nc1cccc(C)c1)c1ccccc1O [Compound 18] | 9 ± 5.8 (≈ 2.69 µg/mL) | 18 ± 12 (≈ 5.39 µg/mL) | 11 |  |  |
| CSC(=S)N/N=C(\c1ccccc1)c1ccccn1 [Compound 19] | 6 ± 4.2 (≈ 1.72 µg/mL) | 10 ± 3 (≈ 2.87 µg/mL) | 2.4 |  |  |
| C/C(=N\Nc1nc(C)cc(C)n1)c1ccccc1O [Compound 24] | 30 to 90 (≈ 7.69 to 23.1 µg/mL) | 40 ± 8 (≈ 10.3 µg/mL) | 67 |  | LepB-UE MIC [1, 7]: 30 ± 3 µM; Change in potency against LepB-UE compared to compound 1 [1]: at least 10 fold |
| CC(C)=NNc1nc(C)cc(C)n1 [Compound 25] | > 200 | > 200 | > 100 |  |  |

| Compound | MIC [1, 5] [µM] | MIC [2, 6] [µM] | CC50 [3] [µM] | IC50 [4] [µM] | other results |
| --- | --- | --- | --- | --- | --- |
| C/C(=N\Nc1nc(C)cc(C)n1)c1cccnc1 [Compound 26] | > 200 | > 200 |  |  |  |
| C/C(=N\Nc1ccccn1)c1ccccn1 [Compound 29] | 130 (≈ 27.6 µg/mL) | > 200 | > 100 |  | Change in potency against LepB-UE compared to compound 1 [1]: 42 fold |
| C/C(=N\NC(=N)c1ccccn1)c1ccccn1 [Compound 30] | 7.7 ± 0.2 (≈ 1.84 µg/mL) | 47 ± 6 (≈ 11.2 µg/mL) | 59 |  | Change in potency against LepB-UE compared to compound 1 [1]: activity was comparable to that of 1 |
| C/C(=N\NC(=O)c1ccncc1)c1ccccn1 [Compound 31] | 3.5 to 15 (≈ 0.841 to 3.6 µg/mL) | 4.7 ± 0.3 (≈ 1.13 µg/mL) | 10 |  | LepB-UE MIC [1, 7]: 3.6 ± 0.7 µM; Change in potency against LepB-UE compared to compound 1 [1]: activity was comparable to that of 1 |
| N=C(N/N=C/c1cccc(Cl)c1)c1ccccn1 [Compound 32] | 41 (≈ 10.6 µg/mL) | 59 (≈ 15.3 µg/mL) | 62 |  |  |
| C/C(=N\NC(=O)c1ccc(Br)o1)c1ccccn1 [Compound 35] |  | 5.3 ± 3.3 (≈ 1.63 µg/mL) | 0.6 |  | LepB-UE MIC [1, 7]: 8.2^b μM |
| C/C(=N\NC(=O)c1cc(Br)ccc1O)c1ccccn1 [Compound 37] | 2 to 2.5 (≈ 0.668 to 0.835 µg/mL) | 4.2 ± 2.6 (≈ 1.4 µg/mL) | 5.4 |  | LepB-UE MIC [1, 7]: 2.0 ± 0.5 µM |
| C/C(=N\NC(N)=S)c1ccccn1 [Compound 41] | 3.6 (≈ 0.699 µg/mL) | 4 (≈ 0.777 µg/mL) | 22 |  | Differential activity (difference in MIC, wt versus LepB-UE) [1]: equally potent toward both wt and LepB-UE; Change in potency against LepB-UE compared to compound 1 [1]: comparable to that of 1 |
| CC1=NN(c2nc(C)cc(C)n2)C(=O)C1Cc1ccccc1 (stereo not shown) [Compound 45] | 56 ± 3 (≈ 16.5 µg/mL) | 68 ± 12 (≈ 20 µg/mL) | > 100 |  |  |
| CCOC(=O)c1c(C)nn(-c2nc(C)cc(C)n2)c1N [Compound 48] | 44 ± 6 (≈ 12.1 µg/mL) | > 200 | > 100 |  |  |
| Cc1cc(C)nc(-n2nc(C)c3c2CC(c2cccs2)CC3=O)n1 (stereo not shown) [Compound 49] | > 200 | > 200 |  |  |  |
| Cc1cc(C)nc(-n2nc(C)c3c2NC(=O)CC3c2ccccc2)n1 (stereo not shown) [Compound 50] | > 200 | > 200 | 66 |  |  |
| CN(Cc1ccn(C)n1)C(=O)c1ccn(-c2ccc([N+](=O)[O-])cc2)n1 [Compound 51] | > 200 | > 200 | > 100 |  |  |
| Cc1ccn(-c2ccc(C(=O)O)cc2)n1 [Compound 52] | > 200 | > 200 | > 100 |  |  |
| Cc1ccc(C(N)=O)cc1-n1ccc(-c2cccnc2)n1 [Compound 53] | > 200 | > 200 | > 100 |  |  |
| CC(O)c1nc2cc(-n3ccc(-c4cnccn4)n3)ccc2[nH]1 (stereo not shown) [Compound 54] | > 200 | > 200 | > 100 |  |  |
| OCc1ccccc1-n1ccc(-c2cccnc2)n1 [Compound 55] | > 200 | > 200 | > 100 |  |  |
| Cc1ccc(C(N)=O)cc1-n1ccc(-c2cnccn2)n1 [Compound 56] | > 200 | > 200 | > 100 |  |  |
| CO[C@H]1/C=C/O[C@@]2(C)Oc3c(C)c(O)c4c(O)c(c(/C=N/N5CCN(C)CC5)c(O)c4c3C2=O)NC(=O)/C(C)=C\C=C\[C@H](C)[C@H](O)[C@@H](C)[C@@H](O)[C@@H](C)[C@H](OC(C)=O)[C@@H]1C [rifampicin, reference compound] |  |  |  |  | MIC ([1]; rifampicin, LepB-UE strain, read-out: MIC against LepB-UE): 0.0054 ± 0.0009 µM (≈ 0.00444 µg/mL); MIC ([2]; read-out: MIC against wt): 0.0077 ± 0.0023 µM (≈ 0.00634 µg/mL) |
